Source: US6525001B1, “Substituted pyrimidine and pyridine herbicides” (Mid-American Commercialization Corporation, priority 1997, dated 2003)

What was measured:
Test in all cases: Test D
Type in all cases: in vivo
wild oat (Avena fatua) [1] = settings: PREEMERGENCE
[2] = test system: black nightshade (Solanum nigra); settings: PREEMERGENCE
[3] = test system: lambsquarters (Chenopodium album); settings: POSTEMERGENCE
Description: (§1) Compounds evaluated in this test were formulated in a non-phytotoxic solvent mixture which included a surfactant and applied to plants that were in the 1- to 4-leaf stage (postemergence application). A mixture of sandy loam soil and greenhouse potting mix in a 60:40 ratio was used for the postemergence test.
(§2) Plantings of these crops and weed species were adjusted to produce plants of appropriate size for the postemergence test. All plant species were grown using normal greenhouse practices. Crop and weed species include alfalfa (Medicago sativa), annual bluegrass (Poa annua), blackgrass (Alopecurus myosuroides), black nightshade (Solanum nigra), chickweed (Stellaria media), common poppy (Papaver rhoeas), deadnettle (Lamium amplexicaule), downy brome (Bromus tectorum), field violet (Viola arvensis), galium 2 (Galium aparine), green foxtail (Setaria viridis), Italian ryegrass (Lolium multiflorum), jointed goatgrass (Aegilops cylindrica), kochia (Kochia scoparia), lambsquarters (Chenopodium album), lentil (Lens culinaris), littleseed canarygrass (Phalaris minor), pea (Pisum sativum), potato (Solanum tuberosum), rape (Brassica napus), redroot pigweed (Amaranthus retroflexus), Russian thistle (Salsola kali), scentless chamomile (Matricaria inodora), sorghum (Sorghum vulgare), spring barley (Hordeum vulgare), sugar beet (Beta vulgaris), sunflower (Helianthus annuus), ivyleaf speedwell (Veronica hederaefolia), spring wheat (Triticum aestivum), winter wheat (Triticum aestivum), wild buckwheat (Polygonum convolvulus), wild mustard (Sinapis arvensis), wild oat (Avena fatua), windgrass (Apera spica-venti) and winter barley (Hordeum vulgare).
(§3) Treated plants and untreated controls were maintained in a greenhouse for approximately 21 to 28 days, after which all treated plants were compared to untreated controls and visually evaluated. Plant response ratings, summarized in Table D, are based upon a 0 to 100 scale where 0 is no effect and 100 is complete control. A dash response (−) means no test result.

[4] = test system: spring barley (Hordeum vulgare); settings: PREEMERGENCE
[5] = test system: wild mustard (Sinapis arvensis); parameters: key: 0 is no effect; 100 is complete control; settings: PREEMERGENCE
[6] = test system: downy brome (Bromus tectorum); settings: PREEMERGENCE
[7] = test system: deadnettle (Lamium amplexicaule); settings: PREEMERGENCE
[8] = test system: redroot pigweed (Amaranthus retroflexus); parameters: key: 0 is no effect; 100 is complete control; settings: PREEMERGENCE
[9] = test system: littleseed canarygrass (Phalaris minor); settings: POSTEMERGENCE
Description: as §1, §2, §3

[10] = test system: windgrass (Apera spica-venti); settings: POSTEMERGENCE
Description: as §1, §2, §3

[11] = test system: winter wheat (Triticum aestivum); settings: POSTEMERGENCE
Description: as §1, §2, §3

[12] = test system: spring barley (Hordeum vulgare); settings: POSTEMERGENCE
Description: as §1, §2, §3

[13] = test system: Italian ryegrass (Lolium multiflorum); settings: POSTEMERGENCE
Description: as §1, §2, §3

[14] = test system: winter barley (Hordeum vulgare); settings: POSTEMERGENCE
Description: as §1, §2, §3

[15] = test system: jointed goatgrass (Aegilops cylindrica); settings: POSTEMERGENCE
Description: as §1, §2, §3

[16] = test system: sunflower (Helianthus annuus); settings: POSTEMERGENCE
Description: as §1, §2, §3

[17] = test system: blackgrass (Alopecurus myosuroides); settings: POSTEMERGENCE
Description: as §1, §2, §3

[18] = test system: spring wheat (Triticum aestivum); settings: POSTEMERGENCE
Description: as §1, §2, §3

[19] = test system: downy brome (Bromus tectorum); settings: POSTEMERGENCE
Description: as §1, §2, §3

[20] = test system: annual bluegrass (Poa annua); settings: POSTEMERGENCE
Description: as §1, §2, §3

[21] = test system: scentless chamomile (Matricaria inodora); settings: POSTEMERGENCE
Description: as §1, §2, §3

wild oat (Avena fatua) [22] = settings: POSTEMERGENCE
Description: as §1, §2, §3

[23] = test system: green foxtail (Setaria viridis); settings: POSTEMERGENCE
Description: as §1, §2, §3

## Cc1cnc(-n2ccc(C(F)(F)F)n2)nc1Cn1ccc(C(F)(F)F)n1 [Compound 52]
Wild oat (Avena fatua) [1]; Rate 31 g/ha
  Plant response rating, Wild oat: 40
Wild oat (Avena fatua) [1]; Rate 62 g/ha
  Plant response rating, Wild oat: 50
Wild oat (Avena fatua) [1]; Rate 125 g/ha
  Plant response rating, Wild oat: 60
[2]; Rate 31 g/ha
  Plant response rating, Blk nightshade: 10
[2]; Rate 62 g/ha
  Plant response rating, Blk nightshade: 40
[2]; Rate 125 g/ha
  Plant response rating, Blk nightshade: 90
[3]; Rate 16 g/ha
  Plant response rating, Lambsquarters: 70
[3]; Rate 31 g/ha
  Plant response rating, Lambsquarters: 80
[3]; Rate 62 g/ha
  Plant response rating, Lambsquarters: 80
[3]; Rate 125 g/ha
  Plant response rating, Lambsquarters: 80
[4]; Rate 31 g/ha
  Plant response rating, Spring Barley: 50
[4]; Rate 62 g/ha
  Plant response rating, Spring Barley: 60
[4]; Rate 125 g/ha
  Plant response rating, Spring Barley: 80
[5]; Rate 31 g/ha
  Plant response rating, Wild mustard: 90
[5]; Rate 62 g/ha
  Plant response rating, Wild mustard: 90
[5]; Rate 125 g/ha
  Plant response rating, Wild mustard: 100
[6]; Rate 31 g/ha
  Plant response rating, Downy brome: 30
[6]; Rate 62 g/ha
  Plant response rating, Downy brome: 40
[6]; Rate 125 g/ha
  Plant response rating, Downy brome: 50
[7]; Rate 31 g/ha
  Plant response rating, Deadnettle: 50
[7]; Rate 62 g/ha
  Plant response rating, Deadnettle: 70
[7]; Rate 125 g/ha
  Plant response rating, Deadnettle: 90
[8]; Rate 31 g/ha
  Plant response rating, Redroot pigweed: 90
[8]; Rate 62 g/ha
  Plant response rating, Redroot pigweed: 90
[8]; Rate 125 g/ha
  Plant response rating, Redroot pigweed: 100
[9]; Rate 16 g/ha
  Plant response rating, LS canarygrass: 10
[9]; Rate 31 g/ha
  Plant response rating, LS canarygrass: 10
[9]; Rate 62 g/ha
  Plant response rating, LS canarygrass: 10
[9]; Rate 125 g/ha
  Plant response rating, LS canarygrass: 20
[10]; Rate 16 g/ha
  Plant response rating, Windgrass: 10
[10]; Rate 31 g/ha
  Plant response rating, Windgrass: 10
[10]; Rate 62 g/ha
  Plant response rating, Windgrass: 20
[10]; Rate 125 g/ha
  Plant response rating, Windgrass: 50
[11]; Rate 16 g/ha
  Plant response rating, Wheat (winter): 10
[11]; Rate 31 g/ha
  Plant response rating, Wheat (winter): 10
[11]; Rate 62 g/ha
  Plant response rating, Wheat (winter): 10
[11]; Rate 125 g/ha
  Plant response rating, Wheat (winter): 10
[12]; Rate 16 g/ha
  Plant response rating, Spring Barley: 10
[12]; Rate 31 g/ha
  Plant response rating, Spring Barley: 10
[12]; Rate 62 g/ha
  Plant response rating, Spring Barley: 10
[12]; Rate 125 g/ha
  Plant response rating, Spring Barley: 10
[13]; Rate 16 g/ha
  Plant response rating, I. Ryegrass: 5
[13]; Rate 31 g/ha
  Plant response rating, I. Ryegrass: 10
[13]; Rate 62 g/ha
  Plant response rating, I. Ryegrass: 10
[13]; Rate 125 g/ha
  Plant response rating, I. Ryegrass: 10
[14]; Rate 16 g/ha
  Plant response rating, Barley (winter): 10
[14]; Rate 31 g/ha
  Plant response rating, Barley (winter): 10
[14]; Rate 62 g/ha
  Plant response rating, Barley (winter): 10
[14]; Rate 125 g/ha
  Plant response rating, Barley (winter): 10
[15]; Rate 16 g/ha
  Plant response rating, Jointed goatgra: 10
[15]; Rate 31 g/ha
  Plant response rating, Jointed goatgra: 10
[15]; Rate 62 g/ha
  Plant response rating, Jointed goatgra: 10
[15]; Rate 125 g/ha
  Plant response rating, Jointed goatgra: 10
[16]; Rate 16 g/ha
  Plant response rating, Sunflower: 40
[16]; Rate 31 g/ha
  Plant response rating, Sunflower: 20
[16]; Rate 62 g/ha
  Plant response rating, Sunflower: 50
[16]; Rate 125 g/ha
  Plant response rating, Sunflower: 70
[17]; Rate 16 g/ha
  Plant response rating, Blackgrass: 10
[17]; Rate 31 g/ha
  Plant response rating, Blackgrass: 10
[17]; Rate 62 g/ha
  Plant response rating, Blackgrass: 10
[17]; Rate 125 g/ha
  Plant response rating, Blackgrass: 10
[18]; Rate 16 g/ha
  Plant response rating, Spring Wheat: 10
[18]; Rate 31 g/ha
  Plant response rating, Spring Wheat: 10
[18]; Rate 62 g/ha
  Plant response rating, Spring Wheat: 10
[18]; Rate 125 g/ha
  Plant response rating, Spring Wheat: 10
[19]; Rate 16 g/ha
  Plant response rating, Downy brome: 10
[19]; Rate 31 g/ha
  Plant response rating, Downy brome: 20
[19]; Rate 62 g/ha
  Plant response rating, Downy brome: 20
[19]; Rate 125 g/ha
  Plant response rating, Downy brome: 20
[20]; Rate 16 g/ha
  Plant response rating, Annual bluegras: 10
[20]; Rate 31 g/ha
  Plant response rating, Annual bluegras: 20
[20]; Rate 62 g/ha
  Plant response rating, Annual bluegras: 20
[20]; Rate 125 g/ha
  Plant response rating, Annual bluegras: 50
[21]; Rate 16 g/ha
  Plant response rating, Scentless chamo: 30
[21]; Rate 31 g/ha
  Plant response rating, Scentless chamo: 50
[21]; Rate 62 g/ha
  Plant response rating, Scentless chamo: 60
[21]; Rate 125 g/ha
  Plant response rating, Scentless chamo: 70
Wild oat (Avena fatua) [22]; Rate 16 g/ha
  Plant response rating, Wild oat: 10
Wild oat (Avena fatua) [22]; Rate 31 g/ha
  Plant response rating, Wild oat: 10
Wild oat (Avena fatua) [22]; Rate 62 g/ha
  Plant response rating, Wild oat: 10
Wild oat (Avena fatua) [22]; Rate 125 g/ha
  Plant response rating, Wild oat: 10
[23]; Rate 16 g/ha
  Plant response rating, Green foxtail: 10
[23]; Rate 31 g/ha
  Plant response rating, Green foxtail: 10
[23]; Rate 62 g/ha
  Plant response rating, Green foxtail: 10
[23]; Rate 125 g/ha
  Plant response rating, Green foxtail: 30
